Earlier results as cited in patent US5519028A, “Antiviral preparations” (priority 1992, dated 1996).

Tested on: viruses of vaccine
Details: intracutaneously 200-600 μg or 2.5-500 mg/day; cited from earlier work

CCc1ccc2c3[nH]c4ccccc4c3cc[n+]2c1 [flavopereirine]
appearance and development of vital papules: prevents the appearance and development of vital papules
